Test results: patent publication EP4497440A1, “USE OF 7-TRIFLUOROMETHYL-7ALPHA,25-DIHYDROXYCHOLESTEROL IN THE TREATMENT AND MODULATION OF AUTOIMMUNE AND INFLAMMATORY DISEASES OF THE NERVOUS SYSTEM AND NEURODEGENERATIVE DISEASES” (Gdanski Uniwersytet Medyczny, priority 2023, dated 2025)
“Also recorded” adds a separate entry of the source.

How the values were obtained:
[1] = test system: mouse organotypic cerebellar slices; assay: Remyelination of organotypic cerebellar slices after LPC demyelination (Mbp mRNA by quantitative PCR); format: cell-based; conditions: LPC 0.4 mg/ml, then treatment in serum-free culture medium for 14-16 days; barbadin 16 µM, 7α,25OHC 0.1 µM, NIBR189 10 µM; concentration of CF3-7α,25OHC not given; vs untreated LPC slices
Experimental: (§1) Organotypic cerebellar slices were sampled from ten-day old mice and then grown in an incubator for 14 days. After 14 days the myelin was chemically removed with LPC (0.4 mg/ml). Following the removal of the myelin sheaths, the slices were treated with: • 1. the control group: regular culture medium, without LPC • 2. LPC, then on serum-free culture medium for 14-16 days • 3. LPC followed by barbadin 16 µM in serum-free culture medium for 14-16 days • 4. LPC followed by 7α,25OHC 0.1 µM in serum-free culture medium for 14-16 days • 5. LPC followed by NIBR189 10 µM in serum-free culture medium for 14-16 days • 6. LPC followed by barbadin 16 µM + 7α,25OHC 0.1 µM in serum-free culture medium for 14-16 days
Once the experiment was completed (remyelination for 14-16 days) the slices were collected and MBP mRNA levels were measured by the PCR quantitative method. In the mouse organotypic cerebellar slices in which myelin sheaths were chemically removed with lysophosphatidylcholine (LPC) spontaneous myelin regeneration took place except for the slices treated with a selective EBI2 receptor antagonist (NIBR189). The results once again reveal key significance of EBI2 intracellular signalling for myelin regeneration. […] Barbadin, which inhibits internalisation of the EBI2 receptor, is necessary to achieve the therapeutic effect (faster remyelination) in the case of non-modified oxysterol (Fig 1 and Fig 2a).

Ebi2 receptor = assay: Ebi2 mRNA level in organotypic cerebellar slices; format: cell-based, mouse; conditions: slices first treated with LPC and then with 7α,25OHC
Experimental: as §1
(§2) Measurement of the mRNA level of the Ebi2 receptor and of the enzymes synthesizing (Ch25h, Cyp7b1) and degrading (Hsd3b7) the natural ligand 7α,25OHC in organotypic cerebellar slices treated with non-modified oxysterol 7α,25OHC (Fig 5) (tissue and treatments as in Fig 1 and Fig 2a) and in cerebella of the mice subject to the cuprizone model, treated with modified oxysterol CF3-7α,25OHC (Fig 6). LPC treatment modulates enzymes which synthesise and degrade the natural oxysterol 7α,25OHC.

[2] = mice, subcutaneous or intraperitoneal injection, elimination from blood; cited from earlier work
Ch25h = assay: mRNA level of oxysterol-synthesizing enzyme in organotypic cerebellar slices; format: cell-based, mouse; conditions: slices first treated with LPC and then with 7α,25OHC
Experimental: as §1, §2

white blood cells = assay: Cuprizone model: blood morphology (white blood cell counts); format: in vivo, mice; conditions: after 14 days of treatment in the cuprizone model; CF3-7α,25OHC 20 mg/kg s.c., barbadin 0.3 mg/kg i.p.; compared to vehicle group #3
Experimental: C (Fig 7) or #3 (Fig 8 and 9) vehicle control group - the mice were fed with chow containing cuprizone for 9 weeks, and then with regular chow without cuprizone for another 2 weeks. Over the 2 weeks on regular chow the mice in the vehicle control group were first injected vehicle #1: DMSO (intraperitoneal injection), 150 µl once a day, and then vehicle #2: canola oil, subcutaneously, 150 µl once a day.
#4 (Fig 8 and 9) barbadin control group - the mice were fed with chow containing cuprizone for 9 weeks, and then with regular chow without cuprizone for another 2 weeks. Over the 2 weeks on regular chow the mice in the group were injected barbadin 0.3 mg/kg, intraperitoneally, 150 µl once a day, and then vehicle #2: canola oil, subcutaneously, 150 µl once a day.
E (Fig 7) or #5 experimental group with oxysterol CF3-7α,25OHC - the mice were fed with chow containing cuprizone for 9 weeks, and then with regular chow without cuprizone for another 2 weeks. Over the 2 weeks on regular chow the mice in the group were injected vehicle #1: DMSO, intraperitoneally, 150 µl once a day, and CF3-7α,25OHC, dose: 20 mg/kg, subcutaneously, 150 µl once a day.
#6 (Fig 8 and 9) experimental group with barbadin + oxysterol CF3-7α,25OHC - the mice were fed with chow containing cuprizone for 9 weeks, and then with regular chow without cuprizone for another 2 weeks. Over the 2 weeks on regular chow the mice in the group were injected barbadin, 0.3 mg/kg, intraperitoneally, 150 µl once a day, and then one hour following the barbadin injection they were injected CF3-7α,25OHC, dose: 20 mg/kg, subcutaneously, 150 µl once a day.
The blood from the heart was sampled after the mice had been euthanised, and blood morphology test was performed using a standard diagnostic analyser. […] The lymphocyte count in peripheral blood of the mice which had been injected with CF3-7α,25OHC was lower by 50% compared to the control group of mice injected with vehicles (gr. #3 or C). The specific action of CF3-7α,25OHC leading to reduction of the lymphocyte count in blood finds confirmation in the results obtained for the mice of groups #4 (or D) and #6 (or F). Compared to the control group, the lymphocyte count in blood in the group of mice injected with barbadin (#4 or D) was lower only by 21%, and in the group of mice injected with barbadin + CF3-7α,25OHC by 7%. Following interaction with CF3-7α,25OHC, barbadin blocks internalisation of the EBI2 receptor from the cell membrane. The absence of any significant effect related to the treatment with barbadin or barbadin + CF3-7α,25OHC indicates a specific action of CF3-7α,25OHC on the EBI2 receptor and the consequential effects of that action, namely reduction of the count of circulating lymphocytes in blood. Moreover, the number of monocytes in group #5 (or E: mice treated with CF3-7α,25OHC) was lower by as much as 66% and the total leukocyte count (lymphocytes and monocytes included) was also substantially lower (by 51%), though only in the group of mice injected with CF3-7α,25OHC. In our subsequent in vivo tests (short-term pharmacology) we confirmed the action of CF3-7α,25OHC. In that test, too, it reduced the count of white blood cells. CF3-7α,25OHC reduces the lymphocyte count as early as following the 4 mg/kg dose and the effect lasts for 24 hours following administration.

[3] = test system: pro-inflammatory cytokine IL1β; assay: Cuprizone model: IL1β mRNA in cerebellum lysates by PCR; conditions: cerebellum lysates, cuprizone model; versus the group treated solely with vehicles
Description: Identifying the mRNA levels of pro-inflammatory cytokine IL1β in mouse cerebellum lysates (Fig 11).

SMILES	remyelination (Mbp expression) [1]	Ebi2 expression (Ebi2 receptor)	half-life [2]	level of Ch25h (Ch25h)	drop in lymphocytes (lymphocyte count in peripheral blood lower by) (white blood cells) [%]	mRNA level of IL1β went up by [3] [%]
C[C@H](CCCC(C)(C)O)[C@H]1CC[C@H]2[C@@H]3[C@H](O)C=C4C[C@@H](O)CC[C@]4(C)[C@H]3CC[C@]12C [7α,25OHC]	do not remyelinate quicker than ones not subject to any treatment; also recorded: do not remyelinate faster than the untreated slices	reduces the expression level of receptor EBI2; also recorded: does not increase its expression; also recorded: does not increase Ebi2 expression	ca. 30 minutes	reduces the level of Ch25h		
COc1ccc(C(=O)N2CCN(C(=O)/C=C/c3ccc(Br)cc3)CC2)cc1 [NIBR189, (2E)-3-(4-bromophenyl)-1-(4-(4-methoxybenzyoil)-1-piperazine)-2-propen-1-on]	do not remyelinate					
Nn1cnc2scc(-c3ccc(Cc4ccccc4)cc3)c2c1=O [barbadin, reference compound]					21	2
